Data reported in PubChem BioAssay (NCI).
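1) Cells in 96-well plates. 2) Compound, 48 h, 5 concentrations. 3) Linear interpolation between surrounding doses. 4) Unreached endpoint = highest concentration. Definition used: TGI = concentration required for complete inhibition of growth.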

How the values were obtained:
Assay in all cases: NCI-60 cell line screen, 48 h
[1] = test system: SW-620 colon
[2] = test system: HOP-92 NSCLC
[3] = test system: NCI/ADR-RES ovarian
[4] = test system: SK-MEL-2 melanoma
[5] = test system: HCT-15 colon
[6] = test system: OVCAR-3 ovarian
[7] = test system: K-562 leukemia
[8] = test system: KM12 colon
[9] = test system: HCT-116 colon
[10] = test system: HS 578T breast
[11] = test system: COLO 205 colon
[12] = test system: SK-OV-3 ovarian
[13] = test system: 786-0 renal
[14] = test system: LOX IMVI melanoma
[15] = test system: SK-MEL-28 melanoma
[16] = test system: SF-268 CNS
[17] = test system: SF-539 CNS
[18] = test system: HT29 colon
[19] = test system: ACHN renal
[20] = test system: EKVX NSCLC
[21] = test system: MDA-MB-231 breast
[22] = test system: A498 renal
[23] = test system: SN12C renal
[24] = test system: HOP-62 NSCLC
[25] = test system: SK-MEL-5 melanoma
[26] = test system: UACC-62 melanoma
[27] = test system: NCI-H522 lung
[28] = test system: NCI-H226 lung
[29] = test system: UO-31 renal
[30] = test system: U251 CNS
[31] = test system: TK-10 renal
[32] = test system: M14 melanoma
[33] = test system: OVCAR-4 ovarian
[34] = test system: T-47D breast
[35] = test system: OVCAR-5 ovarian
[36] = test system: OVCAR-8 ovarian
[37] = test system: A549 NSCLC
[38] = test system: MCF7 breast
[39] = test system: NCI-H23 lung
[40] = test system: RXF 393 renal
[41] = test system: SNB-19 CNS
[42] = test system: SF-295 CNS
[43] = test system: CAKI-1 renal
[44] = test system: NCI-H460 lung
[45] = test system: MALME-3M melanoma
[46] = test system: UACC-257 melanoma
[47] = test system: DU-145 prostate
[48] = test system: HL-60(TB) leukemia
[49] = test system: SNB-75 CNS
[50] = test system: MDA-MB-435
[51] = test system: BT-549 breast
[52] = test system: PC-3 prostate
[53] = test system: IGROV1 ovarian

For `CCOC(=O)C1=C(C)NC(=O)NC1c1ccc(N(CCCl)CCCl)cc1Cl` (stereo not drawn), the TGI [1] was 31.8 µM, the TGI [2] was 25.7 µM and the TGI [3] was 30.3 µM. For the same compound, the TGI [4] was 29.8 µM, the TGI [5] was 30.8 µM and the TGI [6] was 28.8 µM. The TGI [7] was 24.3 µM, the TGI [8] was 33.9 µM and the TGI [9] was 27.4 µM. For the same compound, the TGI [10] was 36.1 µM, the TGI [11] was 32.6 µM and the TGI [12] was 33.6 µM. It also gave a TGI [13] of 29.2 µM, a TGI [14] of 29.4 µM and a TGI [15] of 31.4 µM. It also gave a TGI [16] of 28.8 µM, a TGI [17] of 30.9 µM and a TGI [18] of 29.5 µM. For the same compound, the TGI [19] was 27.5 µM, the TGI [20] was 45.8 µM and the TGI [21] was 26.5 µM. For the same compound, the TGI [22] was 29.4 µM, the TGI [23] was 29.8 µM and the TGI [24] was 28.5 µM. It also gave a TGI [25] of 27.8 µM, a TGI [26] of 22.4 µM and a TGI [27] of 26.4 µM. It also gave a TGI [28] of 28.8 µM, a TGI [29] of 27.3 µM and a TGI [30] of 30.2 µM. It also gave a TGI [31] of 33.6 µM, a TGI [32] of 29.2 µM and a TGI [33] of 33.1 µM. It also gave a TGI [34] of 19.5 µM, a TGI [35] of 31.8 µM and a TGI [36] of 25.6 µM. The TGI [37] was 26.6 µM, the TGI [38] was 26.5 µM and the TGI [39] was 32.7 µM. For the same compound, the TGI [40] was 30.8 µM, the TGI [41] was 31.2 µM and the TGI [42] was 29.2 µM. For the same compound, the TGI [43] was 30.9 µM, the TGI [44] was 25.6 µM and the TGI [45] was 28.1 µM. The TGI [46] was 29.5 µM, the TGI [47] was 32.1 µM and the TGI [48] was 13.4 µM. For the same compound, the TGI [49] was 28.1 µM, the TGI [50] was 33.1 µM and the TGI [51] was 28.9 µM. The TGI [52] was 28.5 µM and the TGI [53] was 28.4 µM.
